Results: patent US6365633B1, “Method of treating eating disorders” (Knoll Pharmaceutical Company, priority 1999, dated 2002)

Experiments:
[1] = biological target: [3H]Dopamine reuptake in rat brain tissue; assay: in vitro [3H]dopamine reuptake inhibition in rat brain tissue; format: biochemical; conditions: means of ≧3 separate determinations
[2] = biological target: [3H]Noradenaline reuptake in rat brain tissue; assay: in vitro [3H]noradrenaline reuptake inhibition in rat brain tissue; format: biochemical; conditions: means of ≧3 separate determinations

SMILES | Ki [1] [nM] | Ki [2] [nM]
COc1ccc(C(CN(C)C)C2(O)CCCCC2)cc1 (stereo not shown) [Venlafaxine] | 2590 | 196
CC(NC(C)(C)C)C(=O)c1cccc(Cl)c1 (stereo not shown) [Bupropion] | 409 | 2590
